How the values were obtained:
Type in all cases: cell-based
HER2 YVMA = target: T1, HER2 YVMA (Homo sapiens, UniProt P04626, INS775YVMA); test: pHER2 (ERBB2) YVMA assay: phosphorylation of HER2 YVMA at Tyr1221/1222 in HEK cells (AlphaScreen Surefire); details: doxycycline induced, 4 h with compound
T1 construct: expressed in transfected cells; host or cells: human HEK cells, retroviral transduction, doxycycline-inducible expression
Method: For the assay, HEK HER2 YVMA cells are seeded in MEM medium with 10% FBS. 4 hours prior to compound addition, HER2 YVMA expression is induced using 1 μg/mL Doxycycline. […] Subsequently, 60.000 cells/well in 60 μL are added. Cells are incubated with compound for 4 h at 37° C. […] The mixture is incubated at a temperature of 20-25° C. with shaking (700 rpm) for 20 min. After centrifugation, 4 μL of the lysate are transferred to Proxiplates. […] Plates are shaken for 1 min (1400 rpm) and incubated for 2 h at a temperature of 20-25° C. in the dark. […] Plates are shaken for 1 min (1400 rpm) and incubated for 2 h at a temperature of 20-25° C. in the dark. Plates are subsequently analyzed using an Envision reader platform. […] IC50 values are computed from these values in the MEGASTAR IC50 application using a 4 parametric logistic model. […] The results of the assay are provided as IC50 values.

EGFR wild type (WT) = target: T2, EGFR wild type (WT) (Homo sapiens, UniProt P00533); test: pEGFR assay: phosphorylation of EGFR at Tyr1068 in HEK cells expressing EGFR WT (AlphaScreen Surefire); details: 4 h with compound
T2 construct: expressed in transfected cells; host or cells: human HEK cells (ATCC CRL-1573), retroviral transduction
T2 sequence (P00533 25-1210): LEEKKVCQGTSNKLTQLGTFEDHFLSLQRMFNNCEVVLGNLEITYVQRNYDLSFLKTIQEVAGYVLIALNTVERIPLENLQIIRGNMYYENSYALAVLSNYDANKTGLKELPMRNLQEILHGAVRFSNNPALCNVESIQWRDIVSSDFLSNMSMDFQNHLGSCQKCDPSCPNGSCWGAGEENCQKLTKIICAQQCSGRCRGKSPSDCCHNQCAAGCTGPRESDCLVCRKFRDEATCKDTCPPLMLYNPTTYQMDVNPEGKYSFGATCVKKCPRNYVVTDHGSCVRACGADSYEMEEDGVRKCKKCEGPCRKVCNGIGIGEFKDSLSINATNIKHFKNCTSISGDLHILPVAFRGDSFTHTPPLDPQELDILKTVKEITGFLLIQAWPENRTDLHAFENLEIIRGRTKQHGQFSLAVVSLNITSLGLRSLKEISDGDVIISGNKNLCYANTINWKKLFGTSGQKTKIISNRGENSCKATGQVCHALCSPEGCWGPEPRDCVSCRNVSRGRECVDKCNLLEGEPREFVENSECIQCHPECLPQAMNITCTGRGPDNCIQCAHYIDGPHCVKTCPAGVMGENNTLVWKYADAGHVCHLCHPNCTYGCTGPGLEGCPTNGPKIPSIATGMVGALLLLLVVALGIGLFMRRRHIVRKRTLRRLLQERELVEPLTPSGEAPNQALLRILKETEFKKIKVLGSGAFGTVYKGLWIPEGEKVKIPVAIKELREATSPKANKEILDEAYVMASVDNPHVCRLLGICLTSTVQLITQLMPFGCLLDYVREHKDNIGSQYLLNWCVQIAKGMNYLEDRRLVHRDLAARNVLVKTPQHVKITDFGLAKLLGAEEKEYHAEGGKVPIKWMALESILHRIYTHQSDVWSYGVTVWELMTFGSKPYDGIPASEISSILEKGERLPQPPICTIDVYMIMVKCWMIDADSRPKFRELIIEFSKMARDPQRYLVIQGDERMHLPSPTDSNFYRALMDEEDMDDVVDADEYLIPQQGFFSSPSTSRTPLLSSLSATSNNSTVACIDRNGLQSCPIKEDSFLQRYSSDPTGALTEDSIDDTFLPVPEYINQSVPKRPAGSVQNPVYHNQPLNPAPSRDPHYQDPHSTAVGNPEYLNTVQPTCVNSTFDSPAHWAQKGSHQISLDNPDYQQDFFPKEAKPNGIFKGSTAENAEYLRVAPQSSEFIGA
Method: This assay quantifies the phosphorylation of EGFR at Tyr1068 and is used to measure the inhibitory effect of compounds on the transgenic EGFR wild type (WT) protein expressed in HEK cells.
Transduced cells are selected using puromycin. p-EGFR Tyr1068 is determined using the AlphaScreen Surefire pEGF Receptor (Tyr1068) Assay (PerkinElmer, TGRERS). For the assay, HEK EGFR WT cells are seeded in MEM medium with 10% FBS. […] Subsequently, 60.000 cells/well in 60 μL are added. Cells are incubated with compound for 4 h at 37° C. […] The mixture is incubated at a temperature of 20-25° C. with shaking (700 rpm) for 20 min. After centrifugation, 4 μL of the lysate are transferred to Proxiplates. […] Plates are shaken for 1 min (1400 rpm) and incubated for 2 h at a temperature of (20-25° C.) in the dark. […] Plates are shaken for 1 min (1400 rpm) and incubated for 2 h at a temperature of (20-25° C.) in the dark. Plates are subsequently analyzed using an Envision reader platform. […] IC50 values are computed from these values in the MEGASTAR IC50 application using a 4 parametric logistic model.
This cellular phospho-EGFR (pEGFR) compound dose-response assay quantifies the phosphorylation of EGFR at Tyr1068 in HEK cells expressing EGFR WT. The results of the assay are provided as IC50 values.

[1] = system: NCI-H2170 (HER2 wild type) cells; test: Tumor cell line proliferation assay, NCI-H2170 (HER2 wild type), CellTiter-Glo; details: Homo sapiens, 72 h, read-out: GI50 NCI H-2170 HER2 wt amp.
Method: (§1) For proliferation assays, NCI-H2170 (HER2 wild type), NCI-H2170 HER2 YVMA and EGFR WT dependent A431 cells are used. NCI-H2170 HER2 YVMA or NCI-H2170 cells are seeded into 96-well plates at 750 cells/60 μL in growth media (RPMI ATCC+10% FCS, +Penicillin/Streptomycin). […] Compounds are added by using a HP D3000 Digital Dispenser one day after plating the cells. All treatments are performed in technical triplicates. Treated cells are incubated for 72 h at 37° C. with 5% CO2. CellTiter-Glo® Luminescent Cell Viability Assay (Promega) is performed and chemoluminescence is measured by using the multilabel Plate Reader VICTOR X4. The raw data are imported into and analyzed with the Boehringer Ingelheim proprietary software MegaLab (curve fitting based on the program PRISM, GraphPad Inc.).

[2] = system: NCI-H2170 HER2 YVMA cells; test: Tumor cell line proliferation assay, NCI-H2170 HER2 YVMA, CellTiter-Glo; details: Homo sapiens, 72 h, read-out: GI50 NCI H-2170 HER2 YVMA
Excerpt: HER2 YVMA Tumor Cell Line Model Generation and Proliferation Assays
Homology-directed genome engineering is employed to insert a 12 nucleotide sequence encoding YVMA into Exon 20 of the genomic HER2 locus in NCI-H2170 cells. […] The DNA template containing the HER2 exon 20 YVMA insertion variant was obtained from GenScript. PCR followed by Sanger sequencing is used to confirm the presence of the 12-nucleotide insertion in HER2 Exon 20 resulting in the YVMA amino acid duplication.
as §1

[3] = system: EGFR WT dependent A431 cells; test: Tumor cell line proliferation assay, EGFR WT dependent A431 cells, CellTiter-Glo; details: Homo sapiens, A-431, 72 h, read-out: GI50 A431 EGFR wt amp.
Method: as §1

Ba/F3 cells HER2 WT = test: Ba/F3 proliferation assay, HER2 WT, CellTiter-Glo; details: Mus musculus, BaF3, 72 h
Method: (§2) Ba/F3 Cell Model Generation and Proliferation Assays
(§3) Plasmids containing HER2 mutants and EGFR WT were obtained from GeneScript. To generate EGFR/HER2-dependent Ba/F3 models, Ba/F3 cells are transduced with retroviruses containing vectors that harbor EGFR WT, HER2 WT or HER2 mutants (YVMA). Platinum-E cells (Cell Biolabs) are used for retrovirus packaging. Retrovirus is added to Ba/F3 cells. To ensure infection, 4 μg/mL polybrene is added and cells are spin-infected. Infection efficiency is confirmed by measuring GFP-positive cells using a cell analyzer. Cells with an infection efficiency of 10% to 20% are further cultivated and puromycin selection with 1 μg/mL is initiated. As a control, parental Ba/F3 cells are used to assess the selection status. Selection is considered successful when parental Ba/F3 cells cultures die. To evaluate the transforming potential of HER2 mutations, the growth medium is no longer supplemented with IL-3. Ba/F3 cells harboring the empty vector are used as a control. A switch from IL-3 to EGF is performed for Ba/F3 cells expressing EGFR WT known for its dependency on EGF ligand. Approximately ten days before conducting the experiments, puromycin is left out. For proliferation assays (data in tables 10 and 12), Ba/F3 cells are seeded into 96-well plates at 5×10^3 cells/100 μL in growth media. Compounds are added by using a HP D3000 Digital Dispenser. All treatments are performed in technical triplicates. Treated cells are incubated for 72 h at 37° C. with 5% CO2. A CellTiter-Glo® Luminescent Cell Viability Assay (Promega) is performed and chemoluminescence is measured by using the multilabel Plate Reader VICTOR X4. The raw data are imported into and analyzed with the Boehringer Ingelheim proprietary software MegaLab (curve fitting based on the program PRISM, GraphPad Inc.).

[4] = system: Ba/F3 cells HER2 mutants (YVMA); test: Ba/F3 proliferation assay, HER2 YVMA, CellTiter-Glo; details: Mus musculus, BaF3, 72 h
Method: as §2, §3

[5] = system: Ba/F3 cells expressing EGFR WT; test: Ba/F3 proliferation assay, EGFR WT (EGF dependent), CellTiter-Glo; details: Mus musculus, BaF3, EGF instead of IL-3, 72 h, read-out: GI50 BAF3 EGF dep.
Method: as §2, §3

T1 sequence (P04626 with tags, fused parts or gaps INS775YVMA): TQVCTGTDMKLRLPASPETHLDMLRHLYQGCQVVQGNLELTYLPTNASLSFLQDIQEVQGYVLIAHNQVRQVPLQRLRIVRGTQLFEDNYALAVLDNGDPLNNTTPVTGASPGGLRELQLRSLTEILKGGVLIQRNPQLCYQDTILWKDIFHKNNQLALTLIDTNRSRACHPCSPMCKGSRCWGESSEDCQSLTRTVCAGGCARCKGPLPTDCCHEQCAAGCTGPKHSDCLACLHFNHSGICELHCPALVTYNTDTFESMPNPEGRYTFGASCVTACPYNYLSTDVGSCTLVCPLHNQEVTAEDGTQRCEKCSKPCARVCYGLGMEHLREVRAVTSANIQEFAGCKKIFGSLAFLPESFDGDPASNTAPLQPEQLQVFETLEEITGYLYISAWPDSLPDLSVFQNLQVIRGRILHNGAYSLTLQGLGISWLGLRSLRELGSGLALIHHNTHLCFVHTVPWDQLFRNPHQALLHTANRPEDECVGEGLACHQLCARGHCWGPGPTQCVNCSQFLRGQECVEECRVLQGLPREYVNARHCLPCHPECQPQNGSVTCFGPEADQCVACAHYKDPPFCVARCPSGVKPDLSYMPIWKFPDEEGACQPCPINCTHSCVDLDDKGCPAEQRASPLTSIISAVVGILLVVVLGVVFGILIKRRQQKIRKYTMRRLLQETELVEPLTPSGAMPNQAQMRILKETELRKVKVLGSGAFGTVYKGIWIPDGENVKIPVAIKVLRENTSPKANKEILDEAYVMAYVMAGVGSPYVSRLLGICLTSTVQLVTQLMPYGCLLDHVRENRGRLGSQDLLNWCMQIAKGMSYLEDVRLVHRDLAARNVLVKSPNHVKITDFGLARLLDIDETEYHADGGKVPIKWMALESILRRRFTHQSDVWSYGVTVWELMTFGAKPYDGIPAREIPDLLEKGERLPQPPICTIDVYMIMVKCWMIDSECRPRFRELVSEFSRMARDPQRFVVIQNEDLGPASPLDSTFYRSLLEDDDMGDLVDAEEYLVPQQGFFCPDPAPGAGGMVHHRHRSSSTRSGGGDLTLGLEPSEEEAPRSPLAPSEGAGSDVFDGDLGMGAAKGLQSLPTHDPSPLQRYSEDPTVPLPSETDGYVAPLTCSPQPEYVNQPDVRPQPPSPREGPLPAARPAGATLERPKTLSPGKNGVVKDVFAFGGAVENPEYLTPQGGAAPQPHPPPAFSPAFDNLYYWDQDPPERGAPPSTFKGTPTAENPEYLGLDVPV

SMILES	IC50 (HER2 YVMA)	IC50 (EGFR wild type (WT))	GI50 [1]	GI50 [2]	GI50 [3]	GI50 (Ba/F3 cells HER2 WT)	GI50 [4]	GI50 [5]
Cc1cc(Nc2ncnc3ccc(NC4=NC(C)(C)CO4)cc23)ccc1Oc1ccn2ncnc2c1 [Tucatinib, reference compound]	0.004 µM	1.41 µM	0.058 µM	0.798 µM	4.22 µM	0.01 µM	0.338 µM	2.97 µM
C=CC(=O)NC1CCN(c2ncc3ncnc(Nc4ccc(Oc5ccn6ccnc6c5)c(C)c4)c3n2)CC1 [Example I-12]	0.016 µM	0.23 µM	0.008 µM	0.071 µM	> 5 µM	0.002 µM	0.018 µM	1.75 µM
C=CC(=O)NC1CCN(c2ncc3ncnc(Nc4cc(F)c(Oc5ccn6ncnc6c5)c(Cl)c4)c3n2)CC1 [Example I-06]	0.044 µM	0.773 µM	0.012 µM	0.215 µM	> 5 µM	0.001 µM	0.031 µM	> 5 µM
C=CC(=O)N1CCC(Nc2ncc3ncnc(Nc4ccc(Oc5ccc6c(c5)ncn6C)c(C)c4)c3n2)CC1 [Example I-14]	0.011 µM	0.073 µM	0.01 µM	0.037 µM	> 2 µM	0.002 µM	0.017 µM	0.756 µM
C=CC(=O)NC1(C)CCN(c2ncc3ncnc(Nc4ccc(Oc5ccc6c(c5)ncn6C)c(OC)c4)c3n2)CC1 [Example I-04]	0.026 µM	0.495 µM	0.012 µM	0.099 µM	> 5 µM	0.003 µM	0.032 µM	> 5 µM
C=CC(=O)NC1CN(c2ncc3ncnc(Nc4ccc(Oc5cnc6c(c5)ncn6C)c(C)c4)c3n2)C1 [Example I-13]	0.028 µM	0.429 µM	0.019 µM	0.082 µM	> 5 µM	0.001 µM	0.032 µM	> 2 µM
C=CC(=O)NC1CCN(c2ncc3ncnc(Nc4ccc(Oc5ccn6ncnc6c5)c(C)c4)c3n2)CC1 [Example I-11]	0.022 µM	0.521 µM	0.008 µM	0.172 µM	1.25 µM	0.002 µM	0.028 µM	> 2 µM
C#Cc1cc(Nc2ncnc3cnc(NC4CCN(C(=O)C=C)CC4)nc23)ccc1Oc1ccc2c(c1)ncn2C [Example I-15]	0.012 µM	0.086 µM	0.013 µM	0.044 µM	0.948 µM	0.002 µM	0.018 µM	0.425 µM
C#Cc1cc(Nc2ncnc3cnc(N4CCC(NC(=O)C=C)CC4)nc23)ccc1Oc1ccc2c(c1)ncn2C [Example I-02]	0.034 µM	0.628 µM	0.013 µM	0.228 µM	> 5 µM	0.001 µM	0.037 µM	3.01 µM

— patent US11608343B2, “Substituted pyrimido[5,4-d]pyrimidines as HER2 inhibitors” (Boehringer Ingelheim International GmbH, priority 2020, dated 2023)
